What was measured:
Type in all cases: in vivo
Myzus persicae = Myzus persicae (green peach aphid): feeding/contact activity; conditions: 144 h, application rate 200 ppm, aphid population of mixed ages, 6 days after infestation, read-out: mortality
Procedure: (§1) Sunflower leaf discs were placed onto agar in a 24-well microtiter plate and sprayed with aqueous test solutions prepared from 10'000 ppm DMSO stock solutions. After drying, the leaf discs were infested with an aphid population of mixed ages. The samples were assessed for mortality 6 days after infestation.

Plutella xylostella = Plutella xylostella (diamond back moth), artificial diet; conditions: 120 h, application rate 200 ppm, L2 larvae, 5 days after infestation, read-out: effect in at least one of the two categories (mortality or growth inhibition)
How it was run: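 L2 larvae (10-15 per well) fed on compound-treated, dried artificial diet; test solutions diluted in water from 10'000 ppm DMSO stocks. Readout 5 days post-infestation as mortality or growth inhibition versus untreated diet, with at least 80% effect at 200 ppm as threshold.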

Thrips tabaci = Thrips tabaci (onion thrips): feeding/contact activity; conditions: 144 h, application rate 200 ppm, Thrips population of mixed ages, 6 days after infestation, read-out: mortality
Procedure: as §1, with “on” for “onto”, “in” for “in a”, “plates” for “plate”, “drying” for “drying,”, “a Thrips” for “an aphid”

Euschistus heros = Euschistus heros (neotropical brown stink bug), sprayed soybean leaves; conditions: 120 h, application rate 200 ppm, N2 nymphs, 5 days after infestation, read-out: effect in at least one of the two categories (mortality or growth inhibition)
How it was run: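 Scored 5 days post-infestation versus untreated controls, for both mortality and growth inhibition: N2 nymphs placed on agar-mounted soybean leaves previously sprayed at 200 ppm with aqueous test solutions from DMSO stocks and left to dry.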

Tetranychus urticae = Tetranychus urticae (two-spotted spider mite): feeding/contact activity; conditions: 192 h, application rate 200 ppm, mixed population (mobile stages), 8 days after infestation, read-out: mortality
Procedure: Bean leaf discs on agar in 24-well microtiter plates were sprayed with aqueous test solutions prepared from 10'000 ppm DMSO stock solutions. After drying the leaf discs were infested with a mite population of mixed ages. The samples were assessed for mortality on mixed population (mobile stages) 8 days after infestation.

Diabrotica balteata = Diabrotica balteata (corn root worm), sprayed maize sprouts; conditions: 96 h, application rate 200 ppm, L2 larvae, 4 days after infestation, read-out: effect in at least one of the two categories (mortality or growth inhibition)
How it was run: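 Read-out at 4 days post-infestation: mortality and growth inhibition relative to untreated samples. Test solutions (200 ppm, from DMSO stocks) were sprayed onto agar-held maize sprouts, which after drying received 6–10 L2 larvae per well.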

Spodoptera littoralis = Spodoptera littoralis (Egyptian cotton leaf worm), sprayed cotton leaf discs; conditions: foliar, 72 h, application rate 200 ppm, L1 larvae, 3 days after infestation, read-out: control (mortality, anti-feeding effect, growth inhibition)
How it was run: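 Five first-instar larvae placed on dried cotton leaf discs (on agar) previously sprayed with aqueous dilutions of 10'000 ppm DMSO stocks. Scored at 3 days against untreated discs for mortality, feeding inhibition and growth inhibition; any category above untreated counts as control.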

Cc1cc(C2=NO[C@@](c3cc(Cl)c(Cl)c(Cl)c3)(C(F)(F)F)C2)ccc1C(=O)N[C@@H]1CON(S(=O)(=O)C2CC2)C1 [Compound A229, N-[(4S)-2-cyclopropylsulfonyl-1,2-oxazolidin-4-yl]-2-methyl-4-[(5S)-5-(3,4,5-trichlorophenyl)-5-(trifluoromethyl)-4H-1,2-oxazol-3-yl]benzamide]
≥ 80%: mortality at 200 ppm (Myzus persicae) | percent effect (mortality or growth inhibition) at 200 ppm (Plutella xylostella) | mortality at 200 ppm (Thrips tabaci) | percent effect (mortality or growth inhibition) at 200 ppm (Euschistus heros) | mortality at 200 ppm (Tetranychus urticae) | percent effect (mortality or growth inhibition) at 200 ppm (Diabrotica balteata) | mortality at 200 ppm (Spodoptera littoralis)

Cc1cc(C2=NO[C@](c3cc(Cl)c(F)c(Cl)c3)(C(F)(F)F)C2)ccc1C(=O)N[C@H]1CON(S(=O)(=O)NC(=O)OC(C)(C)C)C1 [Compound A209, tert-butyl N-[[(4R)-4-[[4-[(5R)-5-(3,5-dichloro-4-fluorophenyl)-5-(trifluoromethyl)-4H-1,2-oxazol-3-yl]-2-methylbenzoyl]amino]-1,2-oxazolidin-2-yl]sulfonyl]carbamate]
≥ 80%: mortality at 200 ppm (Myzus persicae) | percent effect (mortality or growth inhibition) at 200 ppm (Plutella xylostella) | mortality at 200 ppm (Thrips tabaci) | percent effect (mortality or growth inhibition) at 200 ppm (Euschistus heros) | mortality at 200 ppm (Tetranychus urticae) | percent effect (mortality or growth inhibition) at 200 ppm (Diabrotica balteata) | mortality at 200 ppm (Spodoptera littoralis)

Cc1cc(C2=NO[C@@](c3cc(Cl)c(F)c(Cl)c3)(C(F)(F)F)C2)ccc1C(=O)N[C@@H]1CON(S(=O)(=O)N(C)C2(C#N)CC2)C1 [Compound A187]
≥ 80%: mortality at 200 ppm (Myzus persicae) | percent effect (mortality or growth inhibition) at 200 ppm (Plutella xylostella) | mortality at 200 ppm (Thrips tabaci) | percent effect (mortality or growth inhibition) at 200 ppm (Euschistus heros) | mortality at 200 ppm (Tetranychus urticae) | percent effect (mortality or growth inhibition) at 200 ppm (Diabrotica balteata) | mortality at 200 ppm (Spodoptera littoralis)

Cc1cc(C2=NO[C@](c3cc(Cl)cc(Cl)c3)(C(F)(F)F)C2)ccc1C(=O)N[C@@H]1CON(S(=O)(=O)C(F)F)C1 [Compound A232, 4-[(5R)-5-(3,5-dichlorophenyl)-5-(trifluoromethyl)-4H-1,2-oxazol-3-yl]-N-[(4S)-2-(difluoromethylsulfonyl)-1,2-oxazolidin-4-yl]-2-methylbenzamide]
≥ 80%: mortality at 200 ppm (Myzus persicae) | percent effect (mortality or growth inhibition) at 200 ppm (Plutella xylostella) | mortality at 200 ppm (Thrips tabaci) | percent effect (mortality or growth inhibition) at 200 ppm (Euschistus heros) | mortality at 200 ppm (Tetranychus urticae) | percent effect (mortality or growth inhibition) at 200 ppm (Diabrotica balteata) | mortality at 200 ppm (Spodoptera littoralis)

C#CCN(CC)S(=O)(=O)N1C[C@@H](NC(=O)c2ccc(C3=NO[C@@](c4cc(Cl)cc(Cl)c4)(C(F)(F)F)C3)cc2Cl)CO1 [Compound A161, 2-chloro-4-[(5S)-5-(3,5-dichlorophenyl)-5-(trifluoromethyl)-4H-isoxazol-3-yl]-N-[(4R)-2-[ethyl(prop-2-ynyl)sulfamoyl]isoxazolidin-4-yl]benzamide]
≥ 80%: mortality at 200 ppm (Myzus persicae) | percent effect (mortality or growth inhibition) at 200 ppm (Plutella xylostella) | mortality at 200 ppm (Thrips tabaci) | percent effect (mortality or growth inhibition) at 200 ppm (Euschistus heros) | mortality at 200 ppm (Tetranychus urticae) | percent effect (mortality or growth inhibition) at 200 ppm (Diabrotica balteata) | mortality at 200 ppm (Spodoptera littoralis)

Cc1cc(C2=NO[C@@](c3cc(Cl)c(OC(F)F)c(Cl)c3)(C(F)(F)F)C2)ccc1C(=O)N[C@@H]1CON(S(=O)(=O)N(C)C)C1 [Compound A205, 4-[(5S)-5-[3,5-dichloro-4-(difluoromethoxy)phenyl]-5-(trifluoromethyl)-4H-1,2-oxazol-3-yl]-N-[(4S)-2-(dimethylsulfamoyl)-1,2-oxazolidin-4-yl]-2-methylbenzamide]
≥ 80%: mortality at 200 ppm (Myzus persicae) | percent effect (mortality or growth inhibition) at 200 ppm (Plutella xylostella) | mortality at 200 ppm (Thrips tabaci) | percent effect (mortality or growth inhibition) at 200 ppm (Euschistus heros) | mortality at 200 ppm (Tetranychus urticae) | percent effect (mortality or growth inhibition) at 200 ppm (Diabrotica balteata) | mortality at 200 ppm (Spodoptera littoralis)

Cc1cc(C(F)(F)F)cc([C@@]2(C(F)(F)F)CC(c3ccc(C(=O)N[C@@H]4CON(S(C)(=O)=O)C4)c(C)c3)=NO2)c1 [Compound A212]
≥ 80%: mortality at 200 ppm (Myzus persicae) | percent effect (mortality or growth inhibition) at 200 ppm (Plutella xylostella) | mortality at 200 ppm (Thrips tabaci) | percent effect (mortality or growth inhibition) at 200 ppm (Euschistus heros) | mortality at 200 ppm (Tetranychus urticae) | percent effect (mortality or growth inhibition) at 200 ppm (Diabrotica balteata) | mortality at 200 ppm (Spodoptera littoralis)

Cc1cc(C2=NO[C@](c3cc(Cl)c(F)c(Cl)c3)(C(F)(F)F)C2)ccc1C(=O)N[C@H]1CON(S(=O)(=O)CC(F)(F)F)C1 [Compound A192, 4-[(5R)-5-(3,5-dichloro-4-fluorophenyl)-5-(trifluoromethyl)-4H-1,2-oxazol-3-yl]-2-methyl-N-[(4R)-2-(2,2,2-trifluoroethylsulfonyl)-1,2-oxazolidin-4-yl]benzamide]
≥ 80%: mortality at 200 ppm (Myzus persicae) | percent effect (mortality or growth inhibition) at 200 ppm (Plutella xylostella) | mortality at 200 ppm (Thrips tabaci) | percent effect (mortality or growth inhibition) at 200 ppm (Euschistus heros) | mortality at 200 ppm (Tetranychus urticae) | percent effect (mortality or growth inhibition) at 200 ppm (Diabrotica balteata) | mortality at 200 ppm (Spodoptera littoralis)

Cc1cc(C2=NO[C@@](c3cc(Cl)c(Cl)c(Cl)c3)(C(F)(F)F)C2)ccc1C(=O)NC1CON(S(=O)(=O)N(C)CC2CO2)C1 (stereo partly drawn) [Compound A83, 2-methyl-N-[2-[methyl(oxiran-2-ylmethyl)sulfamoyl]isoxazolidin-4-yl]-4-[(5S)-5-(3,4,5-trichlorophenyl)-5-(trifluoromethyl)-4H-isoxazol-3-yl]benzamide]
≥ 80%: mortality at 200 ppm (Myzus persicae) | percent effect (mortality or growth inhibition) at 200 ppm (Plutella xylostella) | mortality at 200 ppm (Thrips tabaci) | percent effect (mortality or growth inhibition) at 200 ppm (Euschistus heros) | mortality at 200 ppm (Tetranychus urticae) | percent effect (mortality or growth inhibition) at 200 ppm (Diabrotica balteata) | mortality at 200 ppm (Spodoptera littoralis)

CCN(C1CC1)S(=O)(=O)N1C[C@@H](NC(=O)c2ccc(C3=NO[C@@](c4cc(Cl)cc(Cl)c4)(C(F)(F)F)C3)cc2Cl)CO1 [Compound A157]
≥ 80%: mortality at 200 ppm (Myzus persicae) | percent effect (mortality or growth inhibition) at 200 ppm (Plutella xylostella) | mortality at 200 ppm (Thrips tabaci) | percent effect (mortality or growth inhibition) at 200 ppm (Euschistus heros) | mortality at 200 ppm (Tetranychus urticae) | percent effect (mortality or growth inhibition) at 200 ppm (Diabrotica balteata) | mortality at 200 ppm (Spodoptera littoralis)

Cc1cc(C2=NO[C@@](c3ccc(F)c(C(F)(F)F)c3)(C(F)(F)F)C2)ccc1C(=O)N[C@H]1CON(S(C)(=O)=O)C1 [Compound A183]
≥ 80%: mortality at 200 ppm (Myzus persicae) | percent effect (mortality or growth inhibition) at 200 ppm (Plutella xylostella) | mortality at 200 ppm (Thrips tabaci) | percent effect (mortality or growth inhibition) at 200 ppm (Euschistus heros) | mortality at 200 ppm (Tetranychus urticae) | percent effect (mortality or growth inhibition) at 200 ppm (Diabrotica balteata) | mortality at 200 ppm (Spodoptera littoralis)

Cc1cc(C2=NO[C@@](c3cc(Cl)c(F)c(Cl)c3)(C(F)(F)F)C2)ccc1C(=O)N[C@H]1CON(S(=O)(=O)N2CCC2)C1 [Compound A148]
≥ 80%: mortality at 200 ppm (Myzus persicae) | percent effect (mortality or growth inhibition) at 200 ppm (Plutella xylostella) | mortality at 200 ppm (Thrips tabaci) | percent effect (mortality or growth inhibition) at 200 ppm (Euschistus heros) | mortality at 200 ppm (Tetranychus urticae) | percent effect (mortality or growth inhibition) at 200 ppm (Diabrotica balteata) | mortality at 200 ppm (Spodoptera littoralis)

Cc1cc(C2=NO[C@@](c3cc(Cl)c(C(F)F)c(Cl)c3)(C(F)(F)F)C2)ccc1C(=O)N[C@@H]1CON(S(C)(=O)=O)C1 [Compound A197, 4-[(5S)-5-[3,5-dichloro-4-(difluoromethyl)phenyl]-5-(trifluoromethyl)-4H-1,2-oxazol-3-yl]-2-methyl-N-[(4S)-2-methylsulfonyl-1,2-oxazolidin-4-yl]benzamide]
≥ 80%: mortality at 200 ppm (Myzus persicae) | percent effect (mortality or growth inhibition) at 200 ppm (Plutella xylostella) | mortality at 200 ppm (Thrips tabaci) | percent effect (mortality or growth inhibition) at 200 ppm (Euschistus heros) | mortality at 200 ppm (Tetranychus urticae) | percent effect (mortality or growth inhibition) at 200 ppm (Diabrotica balteata) | mortality at 200 ppm (Spodoptera littoralis)

Cc1cc(C2=NO[C@@](c3cc(Cl)cc(Cl)c3)(C(F)(F)F)C2)ccc1C(=O)N[C@@H]1CON(S(=O)(=O)CF)C1 [Compound A210]
≥ 80%: mortality at 200 ppm (Myzus persicae) | percent effect (mortality or growth inhibition) at 200 ppm (Plutella xylostella) | mortality at 200 ppm (Thrips tabaci) | percent effect (mortality or growth inhibition) at 200 ppm (Euschistus heros) | mortality at 200 ppm (Tetranychus urticae) | percent effect (mortality or growth inhibition) at 200 ppm (Diabrotica balteata) | mortality at 200 ppm (Spodoptera littoralis)

— patent publication US10588317B2, “Isoxazoline-substituted benzamides and analogues as insecticides” (priority 2015, dated 2020)
